Measured values reported in PubChem BioAssay AID1259407 (Chemical Carcinogenesis Research Information System (CCRIS), 2018).
Active and inactive are the calls of the source. No rule for the calls is given here.

Test system: CCRIS mutagenicity, Ames/micronucleus/aberration tests
Test: CCRIS mutagenicity studies
[1] = Test System: AMES SALMONELLA TYPHIMURIUM, Strain/Indicator: TA98, Metabolic Activation: NONE, Method: STANDARD PLATE
[2] = Test System: AMES SALMONELLA TYPHIMURIUM, Strain/Indicator: TA100, Metabolic Activation: NONE, Method: STANDARD PLATE

Row | SMILES | mutagenic call [1] | mutagenic call (Test System: AMES SALMONELLA TYPHIMURIUM, Strain/Indicator: TA98, Metabolic Activation: RAT, LIVER, S-9, PHENOBARBITAL AND 5,6-BENZOFLAVONE, Method: STANDARD PLATE) | mutagenic call [2] | mutagenic call (Test System: AMES SALMONELLA TYPHIMURIUM, Strain/Indicator: TA100, Metabolic Activation: RAT, LIVER, S-9, PHENOBARBITAL AND 5,6-BENZOFLAVONE, Method: STANDARD PLATE) | mutagenic call (Test System: AMES SALMONELLA TYPHIMURIUM, Strain/Indicator: TA1535, Metabolic Activation: NONE, Method: STANDARD PLATE) | mutagenic call (Test System: AMES SALMONELLA TYPHIMURIUM, Strain/Indicator: TA1535, Metabolic Activation: RAT, LIVER, S-9, PHENOBARBITAL AND 5,6-BENZOFLAVONE, Method: STANDARD PLATE) | mutagenic call (Test System: AMES SALMONELLA TYPHIMURIUM, Strain/Indicator: TA1537, Metabolic Activation: NONE, Method: STANDARD PLATE) | mutagenic call (Test System: AMES SALMONELLA TYPHIMURIUM, Strain/Indicator: TA1537, Metabolic Activation: RAT, LIVER, S-9, PHENOBARBITAL AND 5,6-BENZOFLAVONE, Method: STANDARD PLATE) | mutagenic call (Test System: E. COLI, Strain/Indicator: WP2 UVRA, Metabolic Activation: NONE, Method: STANDARD PLATE) | mutagenic call (Test System: E. COLI, Strain/Indicator: WP2 UVRA, Metabolic Activation: RAT, LIVER, S-9, PHENOBARBITAL AND 5,6-BENZOFLAVONE, Method: STANDARD PLATE) | mutagenic call (Test System: AMES SALMONELLA TYPHIMURIUM, Strain/Indicator: TA98, Metabolic Activation: NONE, Method: PREINCUBATION) | mutagenic call (Test System: AMES SALMONELLA TYPHIMURIUM, Strain/Indicator: TA98, Metabolic Activation: RAT LIVER S-9, AROCLOR 1254, Method: STANDARD PLATE) | mutagenic call (Test System: AMES SALMONELLA TYPHIMURIUM, Strain/Indicator: TA98, Metabolic Activation: S-9, Method: PREINCUBATION) | mutagenic call (Test System: AMES SALMONELLA TYPHIMURIUM, Strain/Indicator: TA100, Metabolic Activation: NONE, Method: PREINCUBATION) | mutagenic call (Test System: AMES SALMONELLA TYPHIMURIUM, Strain/Indicator: TA100, Metabolic Activation: RAT LIVER S-9, AROCLOR 1254, Method: STANDARD PLATE) | mutagenic call (Test System: AMES SALMONELLA TYPHIMURIUM, Strain/Indicator: TA100, Metabolic Activation: S-9, Method: PREINCUBATION) | mutagenic call (Test System: AMES SALMONELLA TYPHIMURIUM, Strain/Indicator: TA100, Metabolic Activation: S-9 MIX, Method: STANDARD PLATE)
1 | CC[C@H](C)[C@H](NC(=O)[C@H](Cc1ccc(O)cc1)NC(=O)CNC(=O)[C@@H](NC(=O)[C@@H](NC(=O)[C@H](CS)NC(=O)[C@H](CC(N)=O)NC(=O)[C@H](CS)NC(=O)[C@H](C)NC(=O)[C@H](Cc1ccc(O)cc1)NC(=O)[C@H](CCCCN)NC(=O)[C@H](CC(=O)O)NC(=O)[C@H](CC(C)C)NC(=O)[C@H](C)NC(=O)[C@H](CCC(=O)O)NC(=O)[C@@H](NC(=O)[C@H](Cc1ccc(O)cc1)NC(=O)[C@H](CCSC)NC(=O)[C@H](CS)NC(=O)[C@@H](NC(=O)CNC(=O)[C@H](CC(=O)O)NC(=O)[C@H](Cc1cnc[nH]1)NC(=O)[C@H](CC(C)C)NC(=O)[C@H](CS)NC(=O)[C@H](Cc1ccc(O)cc1)NC(=O)CNC(=O)[C@H](CC(=O)O)NC(=O)[C@H](Cc1cnc[nH]1)NC(=O)[C@H](CO)NC(=O)[C@H](CC(C)C)NC(=O)[C@@H]1CCCN1C(=O)[C@H](CS)NC(=O)[C@H](CCC(=O)O)NC(=O)[C@H](CO)NC(=O)[C@H](CC(=O)O)NC(=O)[C@H](CO)NC(=O)[C@@H](N)CC(N)=O)C(C)C)[C@@H](C)CC)C(C)C)C(C)C)C(=O)NCC(=O)N[C@@H](CCC(=O)O)C(=O)N[C@@H](CCCNC(=N)N)C(=O)N[C@@H](CS)C(=O)N[C@@H](CCC(N)=O)C(=O)N[C@@H](Cc1ccc(O)cc1)C(=O)N[C@@H](CCCNC(=N)N)C(=O)N[C@@H](CC(=O)O)C(=O)N[C@@H](CC(C)C)C(=O)N[C@@H](CCCCN)C(=O)N[C@@H](Cc1c[nH]c2ccccc12)C(=O)N[C@@H](Cc1c[nH]c2ccccc12)C(=O)N[C@@H](CCC(=O)O)C(=O)N[C@@H](CC(C)C)C(=O)N[C@@H](CCCNC(=N)N)C(=O)O | inactive; negative | inactive; negative | inactive; negative | inactive; negative | inactive; negative | inactive; negative | inactive; negative | inactive; negative | inactive; negative | inactive; negative | – | – | – | – | – | – | –
2 | COc1cc(S(=O)(=O)O)c(C)cc1N=Nc1c(O)ccc2cc(S(=O)(=O)O)ccc12 | inactive; negative | – | inactive; negative | – | – | – | – | – | – | – | inactive; negative | inactive; negative | inactive; negative | inactive; negative | inactive; negative | inactive; negative | –
3 | CN(C)C(=S)SNCCNSC(=S)N(C)C | – | – | active; positive | – | – | – | – | – | – | – | – | – | – | – | – | – | inactive; negative
